Reference: PubChem BioAssay (NCI)
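Test compounds were applied to cells in 96-well plates for 48 hours at 5 doses. Here, GI50 denotes the concentration required for 50% inhibition of growth. TGI: concentration producing complete growth inhibition.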

How the values were obtained:
Assay in all cases: NCI tumour cell line growth inhibition, 48 h
786-0 renal = test system: 786-0 renal
A498 renal = test system: A498 renal
A549 NSCLC = test system: A549 NSCLC
ACHN renal = test system: ACHN renal
BT-549 breast = test system: BT-549 breast
CAKI-1 renal = test system: CAKI-1 renal
CCRF-CEM leukemia = test system: CCRF-CEM leukemia
COLO 205 colon = test system: COLO 205 colon
DU-145 prostate = test system: DU-145 prostate
EKVX NSCLC = test system: EKVX NSCLC
HCC-2998 colon = test system: HCC-2998 colon
HCT-116 colon = test system: HCT-116 colon
HCT-15 colon = test system: HCT-15 colon
HL-60(TB) leukemia = test system: HL-60(TB) leukemia
HOP-62 NSCLC = test system: HOP-62 NSCLC
HOP-92 NSCLC = test system: HOP-92 NSCLC
HS 578T breast = test system: HS 578T breast
HT29 colon = test system: HT29 colon
IGROV1 ovarian = test system: IGROV1 ovarian
K-562 leukemia = test system: K-562 leukemia
KM12 colon = test system: KM12 colon
LOX IMVI melanoma = test system: LOX IMVI melanoma
M14 melanoma = test system: M14 melanoma
MALME-3M melanoma = test system: MALME-3M melanoma
MCF7 breast = test system: MCF7 breast
MDA-MB-231 breast = test system: MDA-MB-231 breast
MDA-MB-435 = test system: MDA-MB-435
MOLT-4 leukemia = test system: MOLT-4 leukemia
NCI-H226 lung = test system: NCI-H226 lung
NCI-H23 lung = test system: NCI-H23 lung
NCI-H460 lung = test system: NCI-H460 lung
NCI-H522 lung = test system: NCI-H522 lung
NCI/ADR-RES ovarian = test system: NCI/ADR-RES ovarian
OVCAR-3 ovarian = test system: OVCAR-3 ovarian
OVCAR-4 ovarian = test system: OVCAR-4 ovarian
OVCAR-5 ovarian = test system: OVCAR-5 ovarian
OVCAR-8 ovarian = test system: OVCAR-8 ovarian
PC-3 prostate = test system: PC-3 prostate
RPMI-8226 leukemia = test system: RPMI-8226 leukemia
SF-268 CNS = test system: SF-268 CNS
SF-295 CNS = test system: SF-295 CNS
SF-539 CNS = test system: SF-539 CNS
SK-MEL-28 melanoma = test system: SK-MEL-28 melanoma
SK-MEL-5 melanoma = test system: SK-MEL-5 melanoma
SK-OV-3 ovarian = test system: SK-OV-3 ovarian
SN12C renal = test system: SN12C renal
SNB-19 CNS = test system: SNB-19 CNS
SNB-75 CNS = test system: SNB-75 CNS
SR leukemia = test system: SR leukemia
SW-620 colon = test system: SW-620 colon
T-47D breast = test system: T-47D breast
TK-10 renal = test system: TK-10 renal
U251 CNS = test system: U251 CNS
UACC-257 melanoma = test system: UACC-257 melanoma
UACC-62 melanoma = test system: UACC-62 melanoma
UO-31 renal = test system: UO-31 renal

CC12CC[C@@H]3c4cc5c(cc4CC[C@H]3[C@@H]1CCC2O)oc1cc(F)ccc15 (stereo partly specified)
GI50 (786-0 renal): 16.1 µM | TGI (786-0 renal): 37.4 µM | TGI (A498 renal): 23.6 µM | GI50 (A549 NSCLC): 33.1 µM | TGI (A549 NSCLC): > 100 µM | GI50 (ACHN renal): 15.8 µM | TGI (ACHN renal): 35.4 µM | GI50 (BT-549 breast): 17.7 µM | TGI (BT-549 breast): 39.1 µM | GI50 (CAKI-1 renal): 16.1 µM | TGI (CAKI-1 renal): 37.4 µM | GI50 (CCRF-CEM leukemia): 27.9 µM | TGI (CCRF-CEM leukemia): > 100 µM | GI50 (COLO 205 colon): 17.1 µM | TGI (COLO 205 colon): 36.2 µM | GI50 (DU-145 prostate): 17.8 µM | TGI (DU-145 prostate): 31.6 µM | GI50 (EKVX NSCLC): 15.5 µM | TGI (EKVX NSCLC): 49 µM | GI50 (HCC-2998 colon): 23.2 µM | TGI (HCC-2998 colon): > 100 µM | GI50 (HCT-116 colon): 13.9 µM | TGI (HCT-116 colon): 30.6 µM | GI50 (HCT-15 colon): 10.8 µM | TGI (HCT-15 colon): 31.8 µM | GI50 (HL-60(TB) leukemia): 7.74 µM | TGI (HL-60(TB) leukemia): 39.2 µM | GI50 (HOP-62 NSCLC): 18.7 µM | TGI (HOP-62 NSCLC): 45.4 µM | GI50 (HOP-92 NSCLC): 21.1 µM | TGI (HOP-92 NSCLC): 63 µM | GI50 (HS 578T breast): 26.3 µM | TGI (HS 578T breast): 49.6 µM | GI50 (HT29 colon): 12.5 µM | TGI (HT29 colon): 25 µM | GI50 (IGROV1 ovarian): 16.7 µM | TGI (IGROV1 ovarian): 36.9 µM | GI50 (K-562 leukemia): 8.68 µM | TGI (K-562 leukemia): 47.7 µM | GI50 (KM12 colon): 17.8 µM | TGI (KM12 colon): 45.5 µM | GI50 (LOX IMVI melanoma): 12.1 µM | TGI (LOX IMVI melanoma): 24.5 µM | GI50 (M14 melanoma): 20.8 µM | TGI (M14 melanoma): 74.1 µM | GI50 (MALME-3M melanoma): 20.3 µM | TGI (MALME-3M melanoma): 49.8 µM | GI50 (MCF7 breast): 31.7 µM | TGI (MCF7 breast): 82.7 µM | GI50 (MDA-MB-231 breast): 14.1 µM | TGI (MDA-MB-231 breast): 34 µM | GI50 (MDA-MB-435): 39.5 µM | TGI (MDA-MB-435): > 100 µM | GI50 (MOLT-4 leukemia): 16.2 µM | TGI (MOLT-4 leukemia): 40.6 µM | GI50 (NCI-H226 lung): 14.9 µM | TGI (NCI-H226 lung): 53 µM | GI50 (NCI-H23 lung): 26.1 µM | TGI (NCI-H23 lung): 99.5 µM | GI50 (NCI-H460 lung): 15.2 µM | TGI (NCI-H460 lung): 36.3 µM | GI50 (NCI-H522 lung): 23.2 µM | TGI (NCI-H522 lung): > 100 µM | GI50 (NCI/ADR-RES ovarian): 18.6 µM | TGI (NCI/ADR-RES ovarian): 55.5 µM | GI50 (OVCAR-3 ovarian): 19.1 µM | TGI (OVCAR-3 ovarian): 43.3 µM | GI50 (OVCAR-4 ovarian): 17 µM | TGI (OVCAR-4 ovarian): 55.6 µM | GI50 (OVCAR-5 ovarian): 24.8 µM | TGI (OVCAR-5 ovarian): > 100 µM | GI50 (OVCAR-8 ovarian): 20 µM | TGI (OVCAR-8 ovarian): 62.6 µM | GI50 (PC-3 prostate): 17.3 µM | TGI (PC-3 prostate): 43.2 µM | GI50 (RPMI-8226 leukemia): 14.6 µM | TGI (RPMI-8226 leukemia): > 100 µM | GI50 (SF-268 CNS): 18.8 µM | TGI (SF-268 CNS): 62.8 µM | GI50 (SF-295 CNS): 18.3 µM | TGI (SF-295 CNS): 40.2 µM | GI50 (SF-539 CNS): 22.7 µM | TGI (SF-539 CNS): 54.7 µM | GI50 (SK-MEL-28 melanoma): 20.2 µM | TGI (SK-MEL-28 melanoma): 58.8 µM | GI50 (SK-MEL-5 melanoma): 18.8 µM | TGI (SK-MEL-5 melanoma): 36 µM | GI50 (SK-OV-3 ovarian): 21.5 µM | TGI (SK-OV-3 ovarian): 52.1 µM | GI50 (SN12C renal): 19 µM | TGI (SN12C renal): 42.5 µM | GI50 (SNB-19 CNS): 19 µM | TGI (SNB-19 CNS): 40.9 µM | GI50 (SNB-75 CNS): 15.5 µM | TGI (SNB-75 CNS): 35.5 µM | GI50 (SR leukemia): 15.9 µM | TGI (SR leukemia): 31 µM | GI50 (SW-620 colon): 25.6 µM | TGI (SW-620 colon): 78.9 µM | GI50 (T-47D breast): 12.3 µM | TGI (T-47D breast): 52.6 µM | GI50 (TK-10 renal): 15.6 µM | TGI (TK-10 renal): 33.9 µM | GI50 (U251 CNS): 14.1 µM | TGI (U251 CNS): 28.6 µM | GI50 (UACC-257 melanoma): 21.6 µM | TGI (UACC-257 melanoma): 74.8 µM | GI50 (UACC-62 melanoma): 24.4 µM | TGI (UACC-62 melanoma): > 100 µM | GI50 (UO-31 renal): 24.3 µM | TGI (UO-31 renal): 68 µM
